The record followed here is patent publication US11793794B2, “Combination therapy for treating or preventing depression or other mood diseases” (YALE UNIVERSITY, priority 2018, dated 2023).

Structures are written as SMILES.

This assay concerns patients with major depression. Nature of the assay: double-blind placebo-controlled crossover study: rapamycin or placebo 2 hours before ketamine infusion, depression severity (MADRS). It counts as in vivo, human. On the procedure:
The present studies address a longstanding question in the field—whether the antidepressant effects of ketamine depend upon its capacity to stimulate a key protein known as the mechanistic target for rapamycin (mTOR). If that is indeed the case, ketamine's effects should be reduced when mTOR is inhibited. To test this hypothesis, a double-blind placebo-controlled crossover study was conducted under fully randomized conditions, whereby one set of patients was treated with the mTOR inhibitor rapamycin, an FDA approved drug that is currently used to treat certain immune disorders and cancers.
In this design, symptomatic antidepressant-treated patients with major depression who have a history of non-response to at least one prior antidepressant trial were recruited and studied over 3 years. Participants completed two ketamine infusion test days separated by at least two weeks. On each ketamine test day, patients were randomized to take a “loading dose” of rapamycin or placebo 2 hours before receiving an intravenous infusion of ketamine. The primary outcome measure of the study was the severity of depression, as measured by the Montgomery Åsberg Depression Rating Scale (MADRS). […]
Depression severity was assessed at baseline, and at 4 h, 24 h, 1 week, and 2 weeks post treatment. […]

Turning to `CNC1(c2ccccc2Cl)CCCCC1=O` (racemic) [ketamine, (RS)-2-(2-Chlorophenyl)-2-(methylamino)cyclohexanone], the time to relapse (placebo prior to 0.5 mg/kg iv ketamine, MADRS) is ≤ 2 weeks. Besides, the “duration of benefits produced by ketamine” value (single ketamine infusion without rapamycin) is given as “a few days”.
